Laboratory results reported in PubChem BioAssay AID330 (DTP/NCI, 2004).
Several values for one entry are separate records, joined by “and”; a condition that tells them apart may be missing. Identical values can stand only once. Inconclusive results and toxic doses are left out.

Test system: P388 leukemia ip, CD2F1 mice, survival T/C
Experiment: NCI In Vivo Anticancer Drug Screen. Data for tumor model P388 Leukemia (intraperitoneal) in CD2F1 (CDF1) mice
Conditions: endpoint: median survival time, higher = longer survival
How it was run: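 Mice carrying the transplanted tumor received test compound or vehicle. Survival was recorded in each group, and the value is the treated-group measurement divided by that of the vehicle-treated control group.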

[1] = dose: 100.0 mg/kg/injection, schedule: Q01DX005 (ip), vehicle: saline with Tween-80
[2] = dose: 50.0 mg/kg/injection, schedule: Q01DX009 (ip), vehicle: saline with Tween-80
[3] = dose: 100.0 mg/kg/injection, schedule: Q01DX009 (ip), vehicle: saline with Tween-80
[4] = dose: 200.0 mg/kg/injection, schedule: Q01DX009 (ip), vehicle: saline with Tween-80
[5] = dose: 100.0 mg/kg/injection, schedule: Q04DX002 (ip), vehicle: Klucel (hydroxypropylcellulose) (HPC)
[6] = dose: 200.0 mg/kg/injection, schedule: Q04DX002 (ip), vehicle: Klucel (hydroxypropylcellulose) (HPC)
[7] = dose: 50.0 mg/kg/injection, schedule: Q01DX005 (ip), vehicle: saline with Tween-80
[8] = dose: 200.0 mg/kg/injection, schedule: Q01DX005 (ip), vehicle: saline with Tween-80
[9] = dose: 12.5 mg/kg/injection, schedule: Q01DX009 (ip), vehicle: saline with Tween-80
[10] = dose: 25.0 mg/kg/injection, schedule: Q01DX009 (ip), vehicle: saline with Tween-80
[11] = dose: 100.0 mg/kg/injection, schedule: Q04DX002 (ip), vehicle: saline with Tween-80
[12] = dose: 200.0 mg/kg/injection, schedule: Q04DX002 (ip), vehicle: saline with Tween-80
[13] = dose: 50.0 mg/kg/injection, schedule: Q01DX009 (ip), vehicle: Klucel (hydroxypropylcellulose) (HPC)
[14] = dose: 100.0 mg/kg/injection, schedule: Q01DX009 (ip), vehicle: Klucel (hydroxypropylcellulose) (HPC)
[15] = dose: 200.0 mg/kg/injection, schedule: Q01DX009 (ip), vehicle: Klucel (hydroxypropylcellulose) (HPC)

COc1c(O)cc2oc(-c3ccccc3)c(O)c(=O)c2c1OC
T/C (dose: 25.0 mg/kg/injection, schedule: Q01DX005 (ip), vehicle: Klucel + Tween-80): 89 % of control
T/C (dose: 50.0 mg/kg/injection, schedule: Q01DX005 (ip), vehicle: Klucel + Tween-80): 95 % of control
T/C (dose: 100.0 mg/kg/injection, schedule: Q01DX005 (ip), vehicle: Klucel + Tween-80): 98 % of control
T/C (dose: 200.0 mg/kg/injection, schedule: Q01DX005 (ip), vehicle: Klucel + Tween-80): 95 % of control

Cc1cc2nc(CC(=O)c3cccnc3)c(CC(=O)c3cccnc3)nc2cc1C
T/C (dose: 6.25 mg/kg/injection, schedule: Q01DX005 (ip), vehicle: saline with Tween-80): 90 % of control
T/C (dose: 12.5 mg/kg/injection, schedule: Q01DX005 (ip), vehicle: saline with Tween-80): 90 % of control
T/C (dose: 25.0 mg/kg/injection, schedule: Q01DX005 (ip), vehicle: saline with Tween-80): 90 % of control
T/C [1]: 91 % of control

O/N=C/c1ccc2c(c1)OCO2
T/C [2]: 99 % of control
T/C [3]: 100 % of control
T/C [4]: 87 % of control

CC(NCNc1ccc2ccccc2c1)C(=O)O (stereo unspecified)
T/C [2]: 104 % of control
T/C [3]: 106 % of control
T/C [4]: 98 % of control

[Se]=P(c1ccccc1)(c1ccccc1)N1CC1
T/C (dose: 12.5 mg/kg/injection, schedule: Q01DX001 (ip), vehicle: Klucel (hydroxypropylcellulose) (HPC)): 99 % of control
T/C (dose: 25.0 mg/kg/injection, schedule: Q01DX001 (ip), vehicle: Klucel (hydroxypropylcellulose) (HPC)): 104 % of control
T/C (dose: 50.0 mg/kg/injection, schedule: Q01DX001 (ip), vehicle: Klucel (hydroxypropylcellulose) (HPC)): 101 % of control

c1ccc(CC(Nc2cccnc2)c2ccccc2)cc1 (stereo unspecified)
T/C (dose: 60.0 mg/kg/injection, schedule: Q01DX005 (ip), vehicle: Klucel (hydroxypropylcellulose) (HPC)): 98 % of control
T/C (dose: 120.0 mg/kg/injection, schedule: Q01DX005 (ip), vehicle: Klucel (hydroxypropylcellulose) (HPC)): 104 % of control
T/C (dose: 240.0 mg/kg/injection, schedule: Q01DX005 (ip), vehicle: Klucel (hydroxypropylcellulose) (HPC)): 101 % of control

C[N+]1(C)CCC(Cc2ccccc2)CC1
T/C (dose: 6.25 mg/kg/injection, schedule: Q01DX005 (ip), vehicle: saline): 101 % of control
T/C (dose: 12.5 mg/kg/injection, schedule: Q01DX005 (ip), vehicle: saline): 92 % of control

CCN(CC)Cc1cc(Nc2cc(Cl)c3ccc(N(C)C)cc3n2)ccc1O
T/C (dose: 12.5 mg/kg/injection, schedule: Q01DX009 (ip), vehicle: saline): 110 % of control
T/C (dose: 25.0 mg/kg/injection, schedule: Q01DX009 (ip), vehicle: saline): 110 % of control
T/C (dose: 50.0 mg/kg/injection, schedule: Q01DX009 (ip), vehicle: saline): 109 % of control and 110 % of control

CCOC(=O)c1ccc(N2C(C(=O)OCC)Nc3ccc(C(=O)OCC)cc3C2C(=O)OCC)cc1 (stereo unspecified)
T/C [5]: 97 % of control
T/C [6]: 88 % of control

CCCCCCCCCCC[N+]1(CC)CCCC1
T/C (dose: 0.19 mg/kg/injection, schedule: Q01DX009 (ip), vehicle: saline): 103 % of control
T/C (dose: 0.39 mg/kg/injection, schedule: Q01DX009 (ip), vehicle: saline): 98 % of control and 109 % of control
T/C (dose: 0.78 mg/kg/injection, schedule: Q01DX009 (ip), vehicle: saline): 98 % of control and 104 % of control and 115 % of control
T/C (dose: 1.56 mg/kg/injection, schedule: Q01DX009 (ip), vehicle: saline): 99 % of control
T/C (dose: 3.12 mg/kg/injection, schedule: Q01DX009 (ip), vehicle: saline): 111 % of control

CCc1nc(Cc2ccccc2)nc2c1nc(-c1ccccc1)n2Nc1ccccc1
T/C (dose: 100.0 mg/kg/injection, schedule: Q01DX001 (ip), vehicle: saline with Tween-80): 92 % of control
T/C (dose: 200.0 mg/kg/injection, schedule: Q01DX001 (ip), vehicle: saline with Tween-80): 98 % of control
T/C (dose: 400.0 mg/kg/injection, schedule: Q01DX001 (ip), vehicle: saline with Tween-80): 92 % of control

O=S1(=O)N=C(N2CCCCC2)c2ccccc21
T/C [7]: 99 % of control
T/C [1]: 96 % of control
T/C [8]: 97 % of control

CC1(C)CN(c2ccccc2)N(C(=O)C(=O)N2C(=O)C(C)(C)CN2c2ccccc2)C1=O
T/C (dose: 100.0 mg/kg/injection, schedule: Q04DX002 (ip), vehicle: saline): 104 % of control
T/C (dose: 200.0 mg/kg/injection, schedule: Q04DX002 (ip), vehicle: saline): 102 % of control
T/C (dose: 400.0 mg/kg/injection, schedule: Q04DX002 (ip), vehicle: saline): 100 % of control

C=CC(=O)N1CN(C(=O)C=C)CN(C(=O)C=C)C1
T/C (dose: 6.25 mg/kg/injection, schedule: Q01DX009 (ip), vehicle: saline with Tween-80): 100 % of control
T/C [9]: 158 % of control

Cc1c(C)c(C)c(S(=O)(=O)N2CCN(S(=O)(=O)c3c(C)c(C)c(C)c(C)c3C)CC2)c(C)c1C
T/C [7]: 100 % of control
T/C [1]: 97 % of control
T/C [8]: 96 % of control

COc1cc2c(c(OC)c1OC)-c1cc3c(cc1CC1COC(=O)C1C2)OCO3 (stereo unspecified)
T/C (dose: 2.5 mg/kg/injection, schedule: Q04DX002 (ip), vehicle: saline with Tween-80): 97 % of control and 96 % of control and 102 % of control
T/C (dose: 5.0 mg/kg/injection, schedule: Q04DX002 (ip), vehicle: saline with Tween-80): 95 % of control [middle of 6 runs]
T/C (dose: 10.0 mg/kg/injection, schedule: Q04DX002 (ip), vehicle: saline with Tween-80): 101 % of control [middle of 6 runs]
T/C [9]: 100 % of control
T/C (dose: 20.0 mg/kg/injection, schedule: Q04DX002 (ip), vehicle: saline with Tween-80): 96 % of control and 104 % of control
T/C [10]: 97 % of control
T/C (dose: 25.0 mg/kg/injection, schedule: Q04DX002 (ip), vehicle: saline with Tween-80): 100 % of control
T/C [2]: 95 % of control
T/C (dose: 50.0 mg/kg/injection, schedule: Q04DX002 (ip), vehicle: saline with Tween-80): 104 % of control
T/C [11]: 87 % of control and 119 % of control
T/C [12]: 91 % of control

CS(=O)(=O)CCN(N=O)C(=N)N[N+](=O)[O-]
T/C (dose: 12.5 mg/kg/injection, schedule: Q04DX003 (ip), vehicle: saline with Tween-80): 118 % of control
T/C (dose: 25.0 mg/kg/injection, schedule: Q04DX003 (ip), vehicle: saline with Tween-80): 118 % of control
T/C [2]: 159 % of control
T/C (dose: 50.0 mg/kg/injection, schedule: Q04DX003 (ip), vehicle: saline with Tween-80): 118 % of control
T/C (dose: 66.0 mg/kg/injection, schedule: Q04DX003 (ip), vehicle: saline with Tween-80): 154 % of control
T/C (dose: 150.0 mg/kg/injection, schedule: Q04DX003 (ip), vehicle: saline with Tween-80): 154 % of control

O=C(Cc1ccccc1)c1ccc(F)cc1
T/C [13]: 98 % of control
T/C [14]: 100 % of control
T/C [15]: 99 % of control

CN1C(=O)C2CCC1n1c(=O)n(-c3ccccc3)c(=O)n12 (stereo unspecified)
T/C (dose: 100.0 mg/kg/injection, schedule: Q01DX001 (ip), vehicle: Klucel (hydroxypropylcellulose) (HPC)): 97 % of control
T/C (dose: 200.0 mg/kg/injection, schedule: Q01DX001 (ip), vehicle: Klucel (hydroxypropylcellulose) (HPC)): 99 % of control
T/C (dose: 400.0 mg/kg/injection, schedule: Q01DX001 (ip), vehicle: Klucel (hydroxypropylcellulose) (HPC)): 94 % of control

Nc1ccc(S(=O)(=O)Nc2ccc3oc(=O)[nH]c3c2)cc1
T/C (dose: 50.0 mg/kg/injection, schedule: Q04DX002 (ip), vehicle: Klucel (hydroxypropylcellulose) (HPC)): 101 % of control
T/C [5]: 104 % of control
T/C [6]: 104 % of control

CCCCCCCCCCCCCCCC[N+](C)(C)CCOS(C)(=O)=O
T/C [9]: 110 % of control
T/C [10]: 116 % of control

CCCCCCCCCCOC(=O)c1ccccc1
T/C [13]: 98 % of control
T/C [14]: 93 % of control
T/C [15]: 98 % of control

Cc1[nH][nH]c(=O)c1[N+](=O)[O-]
T/C [2]: 99 % of control
T/C [3]: 108 % of control
T/C [4]: 114 % of control

CN1c2ccc(C=O)cc2Sc2cc(C=O)ccc21
T/C (dose: 60.0 mg/kg/injection, schedule: Q01DX005 (ip), vehicle: saline with Tween-80): 91 % of control
T/C (dose: 120.0 mg/kg/injection, schedule: Q01DX005 (ip), vehicle: saline with Tween-80): 91 % of control
T/C (dose: 240.0 mg/kg/injection, schedule: Q01DX005 (ip), vehicle: saline with Tween-80): 90 % of control

CSc1ccccc1C(=O)O
T/C [11]: 104 % of control
T/C [12]: 101 % of control
T/C (dose: 400.0 mg/kg/injection, schedule: Q04DX002 (ip), vehicle: saline with Tween-80): 102 % of control
